Measurements: patent publication US10577332B2, “Tetrazole derivatives” (Hoffmann-La Roche Inc., priority 2015, dated 2020)

Tests used:
human EAAT3 = biological target: T1, human EAAT3 (Homo sapiens, UniProt P43005); test: FLIPR Membrane Potential (FMP) assay; assay type: cell-based; conditions: HEK-293 cells stably expressing human EAAT3; antagonist applied 15 min before L-glutamate at EC80; Kb by Cheng-Prusoff from IC50
T1 construct: expressed in transfected cells
T1 sequence (P43005 1-524): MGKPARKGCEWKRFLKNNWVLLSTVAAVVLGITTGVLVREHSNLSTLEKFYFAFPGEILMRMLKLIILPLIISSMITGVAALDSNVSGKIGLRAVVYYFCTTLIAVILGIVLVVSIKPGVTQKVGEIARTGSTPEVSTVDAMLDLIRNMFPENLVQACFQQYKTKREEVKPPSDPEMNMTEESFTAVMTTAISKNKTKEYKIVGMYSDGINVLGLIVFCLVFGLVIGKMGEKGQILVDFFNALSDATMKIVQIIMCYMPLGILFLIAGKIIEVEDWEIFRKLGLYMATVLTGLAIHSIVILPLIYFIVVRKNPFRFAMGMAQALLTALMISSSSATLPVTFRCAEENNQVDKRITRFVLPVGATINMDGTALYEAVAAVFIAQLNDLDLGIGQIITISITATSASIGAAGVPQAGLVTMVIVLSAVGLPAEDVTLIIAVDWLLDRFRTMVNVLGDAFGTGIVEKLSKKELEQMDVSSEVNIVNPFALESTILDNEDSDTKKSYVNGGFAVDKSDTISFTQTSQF
In short: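 HEK-293 cells stably expressing human EAAT3, loaded with membrane-potential dye 1 h at 37 °C in Krebs buffer pH 7.4. Antagonists added 15 min before L-glutamate at EC80; peak fluorescence minus basal read on FLIPR at room temperature. Kb derived from IC50 via Cheng-Prusoff.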

Row | melting point [°C] | Kb (human EAAT3) [nM] | Structure (SMILES)
1 | 201 | 200 | CC(C)(C)c1nnnn1-c1cc(C(=O)NC(C)(C)C2CC2)cc(-c2ccc(F)cc2)c1 [Example 99, 3-(5-tert-Butyltetrazol-1-yl)-N-(2-cyclopropylpropan-2-yl)-5-(4-fluorophenyl)-benzamide]
2 | 190.5 | 260 | Cc1cc(-c2cc(C(=O)NC(C)(C)C)cc(-n3nnnc3C(C)(C)C)c2)ccc1F [Example 103, N-tert-Butyl-3-(5-tert-butyltetrazol-1-yl)-5-(4-fluoro-3-methylphenyl)-benzamide]
3 | 258.5 | 350 | CC1(NC(=O)c2cc(-c3ccc(F)cc3)cc(-n3nnnc3C(C)(C)C)c2)CCS(=O)(=O)C1 (racemic) [Example 95, (RS)-3-(5-tert-Butyltetrazol-1-yl)-5-(4-fluorophenyl)-N-(3-methyl-, 1-dioxothiolan-3-yl)-benzamide]
4 | 95.5 | 500 | CC(C)(C)c1nnnn1-c1cc(C(=O)NC(C)(C)C2CC2)cc(-c2ccc(C(F)(F)F)cc2)c1 [Example 111, 3-(5-tert-Butyltetrazol-1-yl)-N-(2-cyclopropylpropan-2-yl)-5-[4-(trifluoromethyl)-phenyl]-benzamide]
5 | 221.5 | 360 | CC(C)(C)c1nnnn1-c1cc(C(=O)NC(C)(C)C(F)(F)F)cc(-c2ccc(F)c(F)c2)c1 [Example 122, 3-(5-tert-Butyltetrazol-1-yl)-5-(3,4-difluorophenyl)-N-(1,1,1-trifluoro-2-methylpropan-2-yl)-benzamide]
6 | 199 | 350 | CC(C)(C)NC(=O)c1cc(-c2ccc(Cl)cc2)cc(-n2cnnn2)c1 [Example 12, N-tert-Butyl-3-(4-chlorophenyl)-5-(tetrazol-1-yl)-benzamide]
7 | 161 | 250 | CCC(C)(C)NC(=O)c1cc(-c2ccc(C)c(F)c2)cc(-n2cnnn2)c1 [Example 5, 3-(3-Fluoro-4-methylphenyl)-N-(2-methylbutan-2-yl)-5-(tetrazol-1-yl)-benzamide]
8 | 85 | 290 | Cc1ccc(-c2cc(C(=O)NC(C)(C)C)cc(-n3nnnc3C)c2)cc1 [Example 23, N-tert-Butyl-3-(4-methylphenyl)-5-(5-methyltetrazol-1-yl)-benzamide]
9 | 59.5 | 350 | CCc1nnnn1-c1cc(C(=O)NC(C)(C)C2CC2)cc(-c2ccc(C)cc2)c1 [Example 36, N-(2-Cyclopropylpropan-2-yl)-3-(5-ethyltetrazol-1-yl)-5-(4-methylphenyl)-benzamide]
10 | 75 | 160 | CC(C)c1nnnn1-c1cc(C(=O)NC(C)(C)C2CC2)cc(-c2ccc(F)cc2)c1 [Example 82, N-(2-Cyclopropylpropan-2-yl)-3-(4-fluorophenyl)-5-(5-propan-2-yltetrazol-1-yl)-benzamide]
11 | 75 | 200 | CCC(C)(C)NC(=O)c1cc(-c2ccc(C)cc2)cc(-n2nnnc2C2CC2)c1 [Example 27, 3-(5-Cyclopropyltetrazol-1-yl)-N-(2-methylbutan-2-yl)-5-(4-methylphenyl)-benzamide]
12 | 223.5 | 280 | Cc1ccc(-c2cc(C(=O)NC(C)(C)C(F)(F)F)cc(-n3nnnc3C(C)(C)C)c2)cc1 [Example 117, 3-(5-tert-Butyltetrazol-1-yl)-5-(4-methylphenyl)-N-(1,1,1-trifluoro-2-methylpropan-2-yl)-benzamide]
13 | 130.5 | 300 | Cc1ccc(-c2cc(C(=O)NC3(C)CCS(=O)(=O)C3)cc(-n3nnnc3C3CC3)c2)cc1 (racemic) [Example 33, (RS)-3-(5-Cyclopropyltetrazol-1-yl)-N-(3-methyl-1,1-dioxothiolan-3-yl)-5-(4-methylphenyl)-benzamide]
14 | 75 | 650 | Cc1ccc(-c2cc(C(=O)NC(C)(C)CO)cc(-n3nnnc3C(C)C)c2)cc1 [Example 14, N-(1-Hydroxy-2-methylpropan-2-yl)-3-(4-methylphenyl)-5-(5-propan-2-yltetrazol-1-yl)-benzamide]
15 | 91 | 480 | CC(C)c1nnnn1-c1cc(C(=O)NC(C)(C)C(F)(F)F)cc(-c2ccc(C(F)(F)F)cc2)c1 [Example 53, 3-(5-Propan-2-yltetrazol-1-yl)-5-[4-(trifluoromethyl)-phenyl]-N-(1,1,1-trifluoro-2-methylpropan-2-yl)-benzamide]
16 | 224.5 | 260 | CC(C)(C)c1nnnn1-c1cc(C(=O)NC(C)(C)C(F)(F)F)cc(-c2ccc(F)cc2)c1 [Example 96, 3-(5-tert-Butyltetrazol-1-yl)-5-(4-fluorophenyl)-N-(1,1,1-trifluoro-2-methylpropan-2-yl)-benzamide]
17 | 110 | 360 | CC(C)(CO)NC(=O)c1cc(-c2ccc(Cl)cc2)cc(-n2nnnc2C2CC2)c1 [Example 58, 3-(4-Chlorophenyl)-5-(5-cyclopropyltetrazol-1-yl)-N-(1-hydroxy-2-methylpropan-2-yl)-benzamide]
18 | 90 | 180 | CC(C)(C)NC(=O)c1cc(-c2ccc(Cl)cc2)cc(-n2nnnc2C2CC2)c1 [Example 56, N-tert-Butyl-3-(4-chlorophenyl)-5-(5-cyclopropyltetrazol-1-yl)-benzamide]
19 | 199 | 120 | CCC(C)(C)NC(=O)c1cc(-c2ccc(F)cc2)cc(-n2nnnc2C(C)(C)C)c1 [Example 97, 3-(5-tert-Butyltetrazol-1-yl)-5-(4-fluorophenyl)-N-(2-methylbutan-2-yl)-benzamide]
20 | 276.5 | 300 | CC(C)(C#N)NC(=O)c1cc(-c2ccc(C(F)(F)F)cc2)cc(-n2nnnc2C(C)(C)C)c1 [Example 120, 3-(5-tert-Butyltetrazol-1-yl)-N-(2-cyanopropan-2-yl)-5-[4-(trifluoromethyl)-phenyl]benzamide]
21 | 79 | 230 | Cc1ccc(-c2cc(C(=O)NC(C)(C)C(F)(F)F)cc(-n3nnnc3C(C)C)c2)cc1 [Example 19, 3-(4-Methylphenyl)-5-(5-propan-2-yltetrazol-1-yl)-N-(1,1,1-trifluoro-2-methylpropan-2-yl)-benzamide]
22 | 80.5 | 170 | CCC(C)(C)NC(=O)c1cc(-c2ccc(Cl)cc2)cc(-n2nnnc2C)c1 [Example 66, 3-(4-Chlorophenyl)-N-(2-methylbutan-2-yl)-5-(5-methyltetrazol-1-yl)-benzamide]
23 | 69 | 210 | CCC(C)(C)NC(=O)c1cc(-c2ccc(F)cc2)cc(-n2nnnc2C(C)C)c1 [Example 60, 3-(4-Fluorophenyl)-N-(2-methylbutan-2-yl)-5-(5-propan-2-yltetrazol-1-yl)-benzamide]
24 | 175 | 430 | CC(C)(NC(=O)c1cc(-c2ccc(F)cc2)cc(-n2cnnn2)c1)C(F)(F)F [Example 18, 3-(4-Fluorophenyl)-5-(tetrazol-1-yl)-N-(1,1,1-trifluoro-2-methylpropan-2-yl)-benzamide]
25 | 95 | 210 | CC(C)(NC(=O)c1cc(-c2ccc(Cl)cc2)cc(-n2nnnc2C2CC2)c1)C1CC1 [Example 81, 3-(4-Chlorophenyl)-N-(2-cyclopropylpropan-2-yl)-5-(5-cyclopropyl-tetrazol-1-yl)-benzamide]
26 | 187 | 350 | CC(C)(NC(=O)c1cc(-c2ccc(Cl)cc2)cc(-n2cnnn2)c1)C(F)(F)F [Example 41, 3-(4-Chlorophenyl)-5-(tetrazol-1-yl)-N-(1,1,1-trifluoro-2-methylpropan-2-yl)-benzamide]
27 | 240.5 | 290 | CC(C)(C)NC(=O)c1cc(-c2ccc(Cl)c(F)c2)cc(-n2nnnc2C(C)(C)C)c1 [Example 105, N-tert-Butyl-3-(5-tert-butyltetrazol-1-yl)-5-(4-chloro-3-fluorophenyl)-benzamide]
28 | 78 | 300 | CCc1nnnn1-c1cc(C(=O)NC(C)(C)C(F)(F)F)cc(-c2ccc(C)cc2)c1 [Example 26, 3-(5-Ethyltetrazol-1-yl)-5-(4-methylphenyl)-N-(1,1,1-trifluoro-2-methylpropan-2-yl)-benzamide]
29 | 119 | 170 | CCC(C)(C)NC(=O)c1cc(-c2ccc(Cl)cc2)cc(-n2nnnc2C(C)(C)C)c1 [Example 90, 3-(5-tert-Butyltetrazol-1-yl)-5-(4-chlorophenyl)-N-(2-methylbutan-2-yl)-benzamide]
30 | 80 | 310 | CC(C)c1nnnn1-c1cc(C(=O)NC(C)(C)C(F)(F)F)cc(-c2ccc(F)cc2)c1 [Example 59, 3-(4-Fluorophenyl)-5-(5-propan-2-yltetrazol-1-yl)-N-(1,1,1-trifluoro-2-methylpropan-2-yl)-benzamide]
